Laboratory results taken from ChEMBL document CHEMBL5608184, “Discovery and mechanistic insights into thieno[3,2-d]pyrimidine and heterocyclic fused pyrimidines inhibitors targeting tubulin for cancer therapy” (Eur J Med Chem, 2024).
pIC50, pKd: −log10 of the molar value. Activity calls are given as the source filed them. The rule behind the calls is not given here.

Tests used:
SK-OV-3 [1] = test: Antiproliferative activity against human SK-OV-3 cells incubated for 48 hrs by CCK8 assay; type: functional, cell-based; conditions: SK-OV-3, 48 h
A2780 = test: Antiproliferative activity against human A2780 cells incubated for 48 hrs by CCK8 assay; type: functional, cell-based; conditions: A2780, 48 h
HCC827 = test: Antiproliferative activity against human HCC827 cells incubated for 48 hrs by CCK8 assay; type: functional, cell-based; conditions: HCC827, 48 h
A549 = test: cells; conditions: Homo sapiens, A549, 48 h
Description: Antiproliferative activity against human A549 cells incubated for 48 hrs by CCK8 assay

[2] = Antiproliferative activity against Paclitaxel-resistant human A2780 cells incubated for 48 hrs by CCK8 assay; type: functional, cell-based; conditions: Paclitaxel-resistant A2780, 48 h
Tubulin (Homo sapiens) = Tubulin (Homo sapiens) (UniProt P68371+Q9H4B7+P0DPH7+P68366+Q13509+Q71U36+P04350+Q3ZCM7+P07437+P68363+Q9BQE3+Q6PEY2+Q13885+Q9BVA1+Q9BUF5); test: Inhibition of tubulin polymerization in human SK-OV-3 assessed as disruption of microtubule organization at 2 nM incubated for 24 hrs by immunofluorescence based analysis; type: cell-based
Sus scrofa = species: Sus scrofa; test: Inhibition of porcine brain tubulin polymerization at 10 uM measured for 60 min by fluorescence based assay
SK-OV-3 [3] = test: Induction of apoptosis in human SK-OV-3 cells assessed as early apoptotic cells at 5 nM incubated for 48 hrs by Annexin V-APC-A/7-AAD-A staining based flow cytometry (reference value: 1.10 %); type: functional
SK-OV-3 [4] = test: Induction of apoptosis in human SK-OV-3 cells assessed as necrotic cells at 5 nM incubated for 48 hrs by Annexin V-APC-A/7-AAD-A staining based flow cytometry (reference value: 0.48 %); type: functional
SK-OV-3 [5] = test: Induction of cell cycle arrest at G2/M phase in human SK-OV-3 cells at 5 nM incubated for 24 hrs by PI staining based flow cytometry (reference value: 29.73 %); type: functional
SK-OV-3 [6] = test: Induction of apoptosis in human SK-OV-3 cells assessed as viable cells at 5 nM incubated for 48 hrs by Annexin V-APC-A/7-AAD-A staining based flow cytometry (reference value: 97.50 %); type: functional; conditions: read-out: Activity
SK-OV-3 [7] = test: Induction of apoptosis in human SK-OV-3 cells assessed as late apoptotic cells at 5 nM incubated for 48 hrs by Annexin V-APC-A/7-AAD-A staining based flow cytometry (reference value: 1.22 %); type: functional
SK-OV-3 [8] = test: Induction of apoptosis in human SK-OV-3 cells assessed as viable cells at 5 nM incubated for 48 hrs by Annexin V-APC-A/7-AAD-A staining based flow cytometry (reference value: 97.17 %); type: functional; conditions: read-out: Activity
SK-OV-3 [9] = test: Induction of apoptosis in human SK-OV-3 cells assessed as necrotic cells at 5 nM incubated for 48 hrs by Annexin V-APC-A/7-AAD-A staining based flow cytometry (reference value: 0.21 %); type: functional
SK-OV-3 [10] = test: Induction of apoptosis in human SK-OV-3 cells assessed as late apoptotic cells at 5 nM incubated for 48 hrs by Annexin V-APC-A/7-AAD-A staining based flow cytometry (reference value: 1.20 %); type: functional
SK-OV-3 [11] = test: Induction of apoptosis in human SK-OV-3 cells assessed as early apoptotic cells at 5 nM incubated for 48 hrs by Annexin V-APC-A/7-AAD-A staining based flow cytometry (reference value: 1.12 %); type: functional
SK-OV-3 [12] = test: Induction of cell cycle arrest at G2/M phase in human SK-OV-3 cells at 5 nM incubated for 24 hrs by PI staining based flow cytometry (reference value: 30.13 %); type: functional
Tubulin = test: Binding affinity to CM5-chip immobilized tubulin (unknown origin) assessed as dissociation constant by SPR analysis; type: protein-complex assay, Homo sapiens

| Structure (SMILES) | pIC50 (SK-OV-3 [1]) | pIC50 (A2780) | pIC50 (HCC827) | pIC50 (A549) | further results |
| --- | --- | --- | --- | --- | --- |
| COc1ccc(N(C)c2nc(N3CCCC3)nc3ccsc23)cc1 | < 6.00 | < 6.00 | < 6.00 | < 6.00 | – |
| CC(=O)O[C@H]1C(=O)[C@@]2(C)[C@H]([C@H](OC(=O)c3ccccc3)[C@]3(O)C[C@H](OC(=O)[C@H](O)[C@@H](NC(=O)c4ccccc4)c4ccccc4)C(C)=C1C3(C)C)[C@]1(OC(C)=O)CO[C@@H]1C[C@@H]2O [PACLITAXEL] | 8.92 | 8.88 | 8.90 | 8.51 | pIC50 [2]: 5.42; inhibition (Tubulin (Homo sapiens)): inactive; inhibition (Sus scrofa): inactive |
| COc1ccc(N(C)c2nc(Cl)nc3sccc23)cc1 | 8.31 | 8.26 | 8.29 | 8.20 | – |
| COc1ccc(N(C)c2nc(Cl)nc3c2ccn3C)cc1 | 7.63 | 7.13 | 7.27 | 6.92 | – |
| COc1ccc(N(C)c2nc(N3CCC3)nc3ccsc23)cc1 | 7.23 | 6.51 | 6.64 | 6.16 | – |
| COc1ccc(N(C)c2nc(NC3CCCC3)nc3ccsc23)cc1 | 6.13 | < 6.00 | < 6.00 | < 6.00 | – |
| COc1ccc(N(C)c2nc(C)nc3ccsc23)cc1 | 8.21 | 7.80 | 8.04 | 7.83 | – |
| COc1ccc(Sc2nc(Cl)nc3ccsc23)cc1 | 7.42 | 7.51 | 7.53 | 7.11 | – |
| COc1c(F)cc(N(C)c2nc(Cl)nc3ccsc23)cc1F | 7.50 | 6.92 | 7.28 | 6.62 | – |
| COc1ccc2c(c1)CCCN2c1nc(Cl)nc2ccsc12 | 8.57 | 8.33 | 8.65 | 8.29 | – |
| CN(c1ccc(C(F)F)cc1)c1nc(Cl)nc2ccsc12 | < 6.00 | < 6.00 | < 6.00 | < 6.00 | – |
| COc1ccc(N(C)c2nc(NC3CCC3)nc3ccsc23)cc1 | 7.04 | 6.92 | 6.95 | 6.68 | – |
| CCNc1nc(N(C)c2ccc(OC)cc2)c2sccc2n1 | 7.28 | 7.29 | 7.50 | 6.80 | – |
| CN(c1ccc(OC(F)(F)F)cc1)c1nc(Cl)nc2ccsc12 | 6.99 | 6.41 | 6.46 | 6.22 | – |
| CN(c1ccc2c(c1)OCO2)c1nc(Cl)nc2ccsc12 | 6.77 | 6.39 | 6.51 | 6.20 | – |
| COc1ccc(N(C)c2nc(NC3CC3)nc3ccsc23)cc1 | 7.60 | 7.52 | 7.70 | 7.14 | – |
| Cc1nn(C)c2ccc(N(C)c3nc(Cl)nc4ccsc34)cc12 | 7.85 | 7.55 | 7.70 | 7.56 | – |
| COc1ccc(N(C)c2nc(Cl)nc3[nH]ccc23)cc1 | 7.41 | 6.65 | 6.65 | 6.23 | – |
| COc1ccc(N(C)c2nc(Cl)nc3ccoc23)cc1 | 8.54 | 8.20 | 8.33 | 8.04 | – |
| COc1cc(N(C)c2nc(Cl)nc3ccsc23)cc(OC)c1OC | < 6.00 | < 6.00 | < 6.00 | < 6.00 | – |

| Structure (SMILES) | pIC50 (SK-OV-3 [1]) | pIC50 (A2780) | pIC50 (HCC827) | pIC50 (A549) | further results |
| --- | --- | --- | --- | --- | --- |
| COc1ccc(N(C)c2nc(N)nc3ccsc23)cc1 | 7.46 | 7.21 | 7.68 | 6.68 | – |
| COc1cc2c(c(OC)c1OC)-c1ccc(OC)c(=O)cc1[C@@H](NC(C)=O)CC2 [COLCHICINE] | 7.99 | 7.91 | 8.03 | – | Activity (SK-OV-3 [3]): 2.15%; pIC50 [2]: 6.30; Activity (SK-OV-3 [4]): 0.28%; Activity (SK-OV-3 [5]): 34.38%; viability at 0.005 µM (SK-OV-3 [6]): 95.9%; Activity (SK-OV-3 [7]): 2.01%; viability at 0.005 µM (SK-OV-3 [8]): 96.2%; Activity (SK-OV-3 [9]): 0.38%; Activity (SK-OV-3 [10]): 1.53%; Activity (SK-OV-3 [11]): 1.47%; Activity (SK-OV-3 [12]): 34.8% |
| COc1ccc(N(C)c2nc(Cl)nc3ccsc23)cc1F | 8.69 | 8.50 | 8.78 | 8.59 | – |
| COc1ccc(N(C)c2nc(NC3CCCCC3)nc3ccsc23)cc1 | < 6.00 | < 6.00 | < 6.00 | < 6.00 | – |
| COc1cc(OC)cc(N(C)c2nc(Cl)nc3ccsc23)c1 | 6.58 | 6.19 | 6.37 | 6.10 | – |
| COc1ccc(N(C)c2nc(N(C)C)nc3ccsc23)cc1 | 7.29 | 6.65 | 6.89 | 6.54 | – |
| COc1ccc(N(C)c2nc(N3CCN(C)CC3)nc3ccsc23)cc1 | < 6.00 | < 6.00 | < 6.00 | < 6.00 | – |
| COc1ccc(N(C)c2nc(Cl)nc3ccsc23)cc1 | 8.23 | 8.14 | 8.07 | 8.06 | pKd (Tubulin): 4.53 |
| COc1ccc(N(C)c2nc(Cl)nc3cc[nH]c23)cc1 | 8.04 | 7.64 | 7.73 | 7.69 | – |
| COc1ccc(N(C)c2ncnc3ccsc23)cc1 | 7.35 | 7.11 | 7.31 | 7.06 | – |
| COc1ccc(N(C)c2nc(Cl)nc3ccccc23)cc1 | 9.11 | 8.96 | 8.90 | 8.89 | – |
| CN(c1ccccc1)c1nc(Cl)nc2ccsc12 | < 6.00 | < 6.00 | < 6.00 | < 6.00 | – |
| COc1ccc(/C=C\c2cc(OC)c(OC)c(OC)c2)cc1O [COMBRETASTATIN A4] | 8.85 | 8.67 | 8.65 | 8.59 | – |
| CN(c1ccc(C(F)(F)F)cc1)c1nc(Cl)nc2ccsc12 | < 6.00 | < 6.00 | < 6.00 | < 6.00 | – |
| CN(c1ccc2c(ccn2C)c1)c1nc(Cl)nc2ccsc12 | 8.91 | 8.81 | 8.81 | 8.76 | – |
| CN(c1ccc(F)cc1)c1nc(Cl)nc2ccsc12 | < 6.00 | < 6.00 | < 6.00 | < 6.00 | – |
| COc1ccc(Oc2nc(Cl)nc3ccsc23)cc1 | < 6.00 | < 6.00 | < 6.00 | < 6.00 | – |
| COc1cccc(N(C)c2nc(Cl)nc3ccsc23)c1 | 7.33 | 6.65 | 6.85 | 6.41 | – |
| COc1ccc2c(c1)CCN2c1nc(Cl)nc2ccsc12 | < 6.00 | < 6.00 | < 6.00 | < 6.00 | – |
| COc1ccc(Nc2nc(Cl)nc3ccsc23)cc1 | < 6.00 | < 6.00 | < 6.00 | < 6.00 | – |
